Emax and EC50 data for 17 compounds are collected here from patent US12459952B2, “TREM2 modulators” (Muna Therapeutics ApS, priority 2024, dated 2025).

The assay addresses T1, Human TREM2 (Homo sapiens, UniProt Q9NZC2).
T1 construct: expressed in transfected cells
The assay is described as follows: Human TREM2 cellular phospho-Syk AlphaLISA assay in HEK293/DAP12+TREM2 stable cell line. In kind it is cell-based. As to conditions: HEK293/DAP12+TREM2 cells; for Emax: maximal response relative to the maximal response of the reference agonist, phospho-Syk AlphaLISA; for EC50: phospho-Syk (Tyr525/526) AlphaLISA signal, 30 min incubation. The text has this: Human TREM2, in vitro Measurement of Triggering Receptor Expressed on Myeloid Cells 2 activity using cellular phosphorylation of Spleen Tyrosine Kinase (“Syk”) Assay
HEK-293 cells were co-transfected with separate plasmids encoding TREM2 and DAP12 to generate a stable cell line. After antibiotic selection, functional clone pool analysis and two successive limiting dilutions, the final clone “HEK293/DAP12+TREM2” underwent a qPCR analysis and a pharmacological validation.
TREM2 signaling through DAP12 was monitored in the HEK293/DAP12+TREM2 stable cell line by measuring the phosphorylation levels of the Syk kinase using the commercially available AlphaLISA SureFire Ultra p-SYK (Tyr525/526) Assay Kit (PerkinElmer #ALSU-PSYK), based on the Perkin Elmer AlphaScreen/AlphaLISA technology.
Compounds are transferred to the test plate and tested in full dose response, 8 concentrations in quadruplicate data points. Compound serial dilutions were performed at Cybi-Felix instrument in 100% DMSO and the dose response curves were assembled in automated fashion in 384MPT at Hamilton STARlet instrument. All the stock solutions were prepared at 20 mM in 100% DMSO. For compounds testing, the starting concentration was 100 μM, dilution steps 1:6. A different concentration's range was adapted for compound's activity based on the preliminary results. Finally, a 384MPT reformatted for all compounds at 8 concentrations, quadruplicates, was used as “mother to child” process with a CyBi@-Well dispenser in which 1 μL of each compound was moved into a destination plate pre-filled with […] of EMEM cell culture medium (BIOWHITTAKER_cat.BE12-125F), thus obtaining 3× concentrated compounds working solution. In columns 1-2 and 23-24 the control wells were added. In particular, dose response curves of a reference control agonist were included in column 1 and 24 as reference control agonist (Reference control agonists used include Human TREM2 polyclonal Antibody AF1828: R&D Systems; Human TREM2 monoclonal Antibody MAB1828: R&D Systems). The dose response curves were tested starting at 30 μM, dilution step 1:6. Both “source” compound plate and “destination” compound plate were barcoded and a relationship between the two plates was thus generated.
HEK293/DAP12+TREM2 cells were cultured in EMEM medium supplemented with IX Penicillin/Streptomycin (BIOWHITTAKER_cat.DE17-602E), ULTRAGLUTAMINE I 200 mM, 10% Fetal Bovine Serum plus antibiotics referred to as “HEK293 Culture Medium”. The day before the experiment, cells were detached by gentle wash with DPBS, followed by 5 min incubation at 37° C. with Trypsin solution. Cells were then diluted in HEK293 Culture Medium without antibiotics, counted and seeded into 384-well poly-D-Lysine coated microplates black/clear bottom (GREINER 781946) at a density of 10,000 cells/well in 25 μL/well by the use of a MATRIX WellMate dispenser. Plates were placed into a humidified cell culture incubator at 37° C. with 5% CO2 until the experimental day. 20-24 hours after seeding mature medium was removed and replaced with 10 μL/well of EMEM cell medium supplemented with 0.1% Pluronic F-68 non-ionic surfactant (Thermofisher, 24040032), referred to as “Assay Buffer”, using the CyBi@-Well instrument. Then 5 μL/well of Assay Buffer containing 3× concentrated test compounds or the reference control agonist (in 0.5% final DMSO concentration) were added to the cells with the CyBi@-Well instrument. Cell plates were incubated for 30 min into a humidified cell culture incubator at 37° C. with 5% CO2, then the medium was removed by manually discard. 20 μL/well of lysis buffer were dispensed using the CyBi@-Well instrument and plates were incubated for 10 min at room temperature on a plate shaker (350 rpm). Then, 10 μL/well of lysate were transferred to the Alpha plates.
The CyBi@-Well instrument was used to dispense 5 μL/well of AlphaLISA Acceptor Bead Solution in IX Immunoassay buffer (Perkin Elmer AL000F). […]

T1 sequence (Q9NZC2 19-230): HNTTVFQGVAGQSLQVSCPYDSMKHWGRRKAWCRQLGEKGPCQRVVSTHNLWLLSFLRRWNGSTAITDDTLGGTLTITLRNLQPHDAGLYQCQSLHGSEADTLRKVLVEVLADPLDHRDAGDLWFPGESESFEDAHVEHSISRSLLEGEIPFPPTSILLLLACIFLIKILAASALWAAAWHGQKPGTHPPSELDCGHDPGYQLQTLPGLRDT
T1 sequence (O43914 22-113 partner): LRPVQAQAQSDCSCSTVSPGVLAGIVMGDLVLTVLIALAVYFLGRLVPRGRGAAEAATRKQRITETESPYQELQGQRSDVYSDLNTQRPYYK

With `Cn1ncc(OC2CN(c3nc(-c4ccc(C#N)cc4F)c4nc(C(F)(F)F)n(C)c(=O)c4n3)C2)c1Cl` [Example 13, 4-(2-(3-((5-chloro-1-methyl-1H-pyrazol-4-yl)oxy)azetidin-1-yl)-7-methyl-8-oxo-6-(trifluoromethyl)-7,8-dihydropyrimido[5,4-d]pyrimidin-4-yl)-3-fluorobenzonitrile], the Emax – broadly, the greatest response seen or fitted, relative to the assay's reference – is 75 to 110% and the EC50 – broadly, the midpoint of the concentration-response curve – is 100 to 1000 nM.

On to `Cn1c(C(F)(F)F)nc2c(-c3ccc(C#N)cc3F)nc(N3CC(Oc4cnn(C5CCCC5)c4)C3)nc2c1=O` [Example 18, 4-(2-(3-((1-cyclopentyl-1H-pyrazol-4-yl)oxy)azetidin-1-yl)-7-methyl-8-oxo-6-(trifluoromethyl)-7,8-dihydropyrimido[5,4-d]pyrimidin-4-yl)-3-fluorobenzonitrile], for which the Emax is 75 to 110% and the EC50 was less than 10 nM.

Compound `Cn1c(C(F)(F)F)nc2c(-c3ccc(C#N)cc3F)nc(N3CC(Oc4ccnc(C(F)F)c4)C3)nc2c1=O` [Example 23, 4-(2-(3-((2-(difluoromethyl)pyridin-4-yl)oxy)azetidin-1-yl)-7-methyl-8-oxo-6-(trifluoromethyl)-7,8-dihydropyrimido[5,4-d]pyrimidin-4-yl)-3-fluorobenzonitrile] had an Emax of 75 to 110% and an EC50 of 10 to 100 nM.

Compound `Cn1c(C(F)(F)F)nc2c(-c3ccc(C#N)cc3F)nc(N3CC(Oc4cncnc4)C3)nc2c1=O` [Example 27, 3-fluoro-4-(7-methyl-8-oxo-2-(3-(pyrimidin-5-yloxy)azetidin-1-yl)-6-(trifluoromethyl)-7,8-dihydropyrimido[5,4-d]pyrimidin-4-yl)benzonitrile] gave an Emax of less than 75% and an EC50 of 100 to 1000 nM.

Regarding `Cc1cc(OC2CN(c3nc(-c4ccc(F)cc4F)c4nc(C(F)(F)F)n(C)c(=O)c4n3)C2)ccn1` [Example 30, 8-(2,4-difluorophenyl)-3-methyl-6-(3-((2-methylpyridin-4-yl)oxy)azetidin-1-yl)-2-(trifluoromethyl)pyrimido[5,4-d]pyrimidin-4(3H)-one], the Emax was 75 to 110% and the EC50 was in the range of 10 to 100 nM.

Consider `Cc1c(OC2CN(c3nc(-c4ccc(C#N)cc4F)c4nc(C(F)(F)F)n(C)c(=O)c4n3)C2)cnn1C` [Example 8, 4-(2-(3-((1,5-dimethyl-1H-pyrazol-4-yl)oxy)azetidin-1-yl)-7-methyl-8-oxo-6-(trifluoromethyl)-7,8-dihydropyrimido[5,4-d]pyrimidin-4-yl)-3-fluorobenzonitrile], for which the Emax is less than 75% and the EC50 lay in the range of 100 to 1000 nM.

Consider `Cn1c(C(F)(F)F)nc2c(-c3ccc(C#N)cc3F)nc(N3CC(Oc4ccnc(C(F)(F)F)c4)C3)nc2c1=O` [Example 25, 3-fluoro-4-(7-methyl-8-oxo-6-(trifluoromethyl)-2-(3-((2-(trifluoromethyl)pyridin-4-yl)oxy)azetidin-1-yl)-7,8-dihydropyrimido[5,4-d]pyrimidin-4-yl)benzonitrile], for which the Emax was in the range of 75 to 110% and the EC50 fell in the range of 10 to 100 nM.

The compound `Cc1ncc(OC2CN(c3nc(-c4ccc(C#N)cc4F)c4nc(C(F)(F)F)n(C)c(=O)c4n3)C2)cn1` [Example 28, 3-fluoro-4-(7-methyl-2-(3-((2-methylpyrimidin-5-yl)oxy)azetidin-1-yl)-8-oxo-6-(trifluoromethyl)-7,8-dihydropyrimido[5,4-d]pyrimidin-4-yl)benzonitrile] showed an Emax of less than 75% and an EC50 of 100 to 1000 nM.

`Cn1c(C(F)(F)F)nc2c(-c3ccc(C#N)cc3)nc(N3CC(Oc4cnn(C5CC5)c4)C3)nc2c1=O` [Example 35, 4-(2-(3-((1-cyclopropyl-1H-pyrazol-4-yl)oxy)azetidin-1-yl)-7-methyl-8-oxo-6-(trifluoromethyl)-7,8-dihydropyrimido[5,4-d]pyrimidin-4-yl)benzonitrile]: the Emax was 75 to 110% and the EC50 lay within 10 to 100 nM.

Take `COc1ccc(-c2nc(N3CC(Oc4cnn(C5CC5)c4)C3)nc3c(=O)n(C)c(C(F)(F)F)nc23)cn1` [Example 37, 6-(3-((1-cyclopropyl-1H-pyrazol-4-yl)oxy)azetidin-1-yl)-8-(6-methoxypyridin-3-yl)-3-methyl-2-(trifluoromethyl)pyrimido[5,4-d]pyrimidin-4(3H)-one]: the Emax lay in the range of 75 to 110% and the EC50 lay within 100 to 1000 nM.

For `Cn1c(C(F)(F)F)nc2c(-c3ccc(C#N)cc3F)nc(N3CC(Oc4cnn(CC5CC5)c4)C3)nc2c1=O` [Example 15, 4-(2-(3-((1-(cyclopropylmethyl)-1H-pyrazol-4-yl)oxy)azetidin-1-yl)-7-methyl-8-oxo-6-(trifluoromethyl)-7,8-dihydropyrimido[5,4-d]pyrimidin-4-yl)-3-fluorobenzonitrile], the Emax is greater than 110% and the EC50 lay in the range of 10 to 100 nM.

On to `Cc1n[nH]c(C)c1OC1CN(c2nc(-c3ccc(C#N)cc3F)c3nc(C(F)(F)F)n(C)c(=O)c3n2)C1` [Example 9, 4-(2-(3-((3,5-dimethyl-1H-pyrazol-4-yl)oxy)azetidin-1-yl)-7-methyl-8-oxo-6-(trifluoromethyl)-7,8-dihydropyrimido[5,4-d]pyrimidin-4-yl)-3-fluorobenzonitrile], for which the Emax fell in the range of 75 to 110% and the concentration giving a half-maximal response (EC50) lay within 100 to 1000 nM.

In the case of `Cn1c(C(F)(F)F)nc2c(-c3ccc(C#N)cc3F)nc(N3CC(Oc4cnn(C5CC5)c4)C3)nc2c1=O` [Example 1, 4-(2-(3-((1-cyclopropyl-1H-pyrazol-4-yl)oxy)azetidin-1-yl)-7-methyl-8-oxo-6-(trifluoromethyl)-7,8-dihydropyrimido[5,4-d]pyrimidin-4-yl)-3-fluorobenzonitrile], the Emax was in the range of 75 to 110% and the EC50 was less than 10 nM.

`Cn1c(C(F)(F)F)nc2c(-c3ccc(C#N)cc3F)nc(N3CC(Oc4nncs4)C3)nc2c1=O` [Example 2, 4-(2-(3-((1,3,4-thiadiazol-2-yl)oxy)azetidin-1-yl)-7-methyl-8-oxo-6-(trifluoromethyl)-7,8-dihydropyrimido[5,4-d]pyrimidin-4-yl)-3-fluorobenzonitrile] yielded an Emax of less than 75% and an EC50 greater than 1000 nM.

As to `Cn1c(C(F)(F)F)nc2c(-c3ccc(C#N)cc3F)nc(N3CC(Oc4cnn(CC(F)(F)F)c4)C3)nc2c1=O` [Example 19, 3-fluoro-4-(7-methyl-8-oxo-2-(3-((1-(2,2,2-trifluoroethyl)-1H-pyrazol-4-yl)oxy)azetidin-1-yl)-6-(trifluoromethyl)-7,8-dihydropyrimido[5,4-d]pyrimidin-4-yl)benzonitrile], the Emax was 75 to 110% and the EC50 fell in the range of 10 to 100 nM.

In the case of `Cn1c(C(F)(F)F)nc2c(-c3ccc(C#N)nc3)nc(N3CC(Oc4cnn(C5CC5)c4)C3)nc2c1=O` [Example 38, 5-(2-(3-((1-cyclopropyl-1H-pyrazol-4-yl)oxy)azetidin-1-yl)-7-methyl-8-oxo-6-(trifluoromethyl)-7,8-dihydropyrimido[5,4-d]pyrimidin-4-yl)picolinonitrile], the Emax lay in the range of 75 to 110% and the EC50 was in the range of 100 to 1000 nM.

Compound `Cn1c(C(F)(F)F)nc2c(-c3ccc(C#N)cc3F)nc(N3CC(Oc4cnc(C#N)cn4)C3)nc2c1=O` [Example 7, 5-((1-(4-(4-cyano-2-fluorophenyl)-7-methyl-8-oxo-6-(trifluoromethyl)-7,8-dihydropyrimido[5,4-d]pyrimidin-2-yl)azetidin-3-yl)oxy)pyrazine-2-carbonitrile] displayed an Emax of less than 75% and an EC50 of 100 to 1000 nM.
